The assay has as its target Mitogen-activated protein kinase kinase kinase 10 (Homo sapiens, UniProt Q02779). In words: Mixed-Lineage Kinase Assays. The procedure:
The MLK1, MLK2, and MLK3 assays were performed using the Millipore multiscreen trichloroacetic acid (TCA) in-plate format. IC50 values were calculated by nonlinear regression using the sigmoidal dose-response (variable slope) equation in GraphPad Prism.

IC50 data for one compound are collected here from BindingDB's records for doi:10.1021/jm051074u (Cephalon, 2007).

For orientation: IC50 means the concentration that gives 50% inhibition.

Mitogen-activated protein kinase kinase kinase 10, sequence (Q02779 whole entry): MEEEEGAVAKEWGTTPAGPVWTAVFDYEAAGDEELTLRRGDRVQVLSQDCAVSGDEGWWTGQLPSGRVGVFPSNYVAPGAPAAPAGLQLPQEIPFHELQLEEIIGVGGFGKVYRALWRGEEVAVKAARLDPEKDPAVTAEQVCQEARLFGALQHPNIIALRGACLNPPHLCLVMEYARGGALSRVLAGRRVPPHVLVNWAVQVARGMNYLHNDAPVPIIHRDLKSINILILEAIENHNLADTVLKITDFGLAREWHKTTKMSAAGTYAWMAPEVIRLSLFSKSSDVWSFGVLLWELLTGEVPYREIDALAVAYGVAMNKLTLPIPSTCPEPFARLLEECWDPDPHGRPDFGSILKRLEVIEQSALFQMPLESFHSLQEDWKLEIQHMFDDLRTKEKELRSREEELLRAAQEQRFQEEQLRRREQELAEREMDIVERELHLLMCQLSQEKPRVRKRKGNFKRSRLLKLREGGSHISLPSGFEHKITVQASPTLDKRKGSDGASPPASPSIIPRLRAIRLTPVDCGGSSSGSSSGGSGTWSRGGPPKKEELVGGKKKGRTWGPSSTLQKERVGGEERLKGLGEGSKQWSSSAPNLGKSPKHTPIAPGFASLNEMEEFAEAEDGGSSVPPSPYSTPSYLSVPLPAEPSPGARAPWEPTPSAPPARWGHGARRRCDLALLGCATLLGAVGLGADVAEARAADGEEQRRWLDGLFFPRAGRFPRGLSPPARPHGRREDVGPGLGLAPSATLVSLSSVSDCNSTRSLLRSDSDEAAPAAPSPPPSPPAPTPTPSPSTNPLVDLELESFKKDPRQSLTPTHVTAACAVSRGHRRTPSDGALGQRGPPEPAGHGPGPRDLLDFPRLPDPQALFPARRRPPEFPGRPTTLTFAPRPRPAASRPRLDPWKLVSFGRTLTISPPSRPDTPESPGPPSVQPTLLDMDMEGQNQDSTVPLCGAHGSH

`COC(=O)[C@@]1(O)C[C@H]2O[C@]1(C)n1c3ccccc3c3c4c(c5c6ccccc6n2c5c31)C(=O)NC4` registered a concentration for half-maximal inhibition (IC50) of 0.045 µM.
